# pIC50: −log10 of the molar value. Like-named read-outs stand apart in the source and are kept apart here.
# Key:
# Type in all cases: cell-based
# LIN28B = LIN28B gene expression by qRT-PCR in U87 cells; settings: IC50 concentration, relative to GAPDH, FIG. 3
# Procedure: U87 cells were treated at the IC50 concentration of the five test compounds. Cells were harvested. RNA was extracted using TRIzol reagent (Invitrogen) and quantified with Nanodrop (Thermo). cDNA was generated by AMV-RT kit (NEB), and a random hexamer primer. Real-time qPCR was carried out on the StepOne Plus system from Applied Biosystems using SYBR mix (Thermo). LIN28B expression was measured by qRT-PCR and is represented relative to GAPDH levels. […] The following primers were used for […] and GAPDH amplifications: […]
# [1] = target: T1, AVIL protein binding to actin (Homo sapiens, UniProt O75366); assay: Immunoprecipitation (MYC antibody) and Western blot (β-actin antibody) in 293T cells transfected with MYC tagged AVIL; settings: IC50 dose, 24 hrs, FIGS. 2A and 2B
# T1 construct: expressed in transfected cells; host or cells: 293T cells
# T1 sequence (O75366 1-819): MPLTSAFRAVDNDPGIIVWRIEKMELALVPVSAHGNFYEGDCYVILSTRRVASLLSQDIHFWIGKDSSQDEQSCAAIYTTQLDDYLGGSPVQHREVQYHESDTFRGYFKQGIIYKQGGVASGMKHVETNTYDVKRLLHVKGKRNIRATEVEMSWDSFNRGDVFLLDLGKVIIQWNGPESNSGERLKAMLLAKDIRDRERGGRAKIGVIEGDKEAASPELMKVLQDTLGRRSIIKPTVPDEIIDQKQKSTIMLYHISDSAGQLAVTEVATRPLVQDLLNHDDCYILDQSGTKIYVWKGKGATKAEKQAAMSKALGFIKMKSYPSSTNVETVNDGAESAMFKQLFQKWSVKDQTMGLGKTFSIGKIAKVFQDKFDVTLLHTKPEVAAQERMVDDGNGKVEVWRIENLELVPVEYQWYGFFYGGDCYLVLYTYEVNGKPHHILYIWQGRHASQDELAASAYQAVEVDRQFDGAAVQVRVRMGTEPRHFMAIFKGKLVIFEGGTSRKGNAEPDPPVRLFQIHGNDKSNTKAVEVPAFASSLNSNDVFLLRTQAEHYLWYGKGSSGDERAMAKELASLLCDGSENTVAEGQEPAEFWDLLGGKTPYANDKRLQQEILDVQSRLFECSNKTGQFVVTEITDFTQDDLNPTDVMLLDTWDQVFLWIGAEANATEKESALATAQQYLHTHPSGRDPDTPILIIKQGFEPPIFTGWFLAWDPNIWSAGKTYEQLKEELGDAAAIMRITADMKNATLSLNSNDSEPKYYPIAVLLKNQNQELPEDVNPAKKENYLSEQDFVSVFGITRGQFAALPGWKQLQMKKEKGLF
# Procedure: 293T cells were first transfected with MYC tagged AVIL. After 24 hrs, the cells were treated with the IC50 dose of the five compounds for 24 hrs. Immunoprecipitation was performed with MYC antibody, and Western blot was performed with β-actin antibody.
# 293T cells were first transfected with MYC tagged AVIL as follows: transfect pQCXIH-myc-AVIL plasmid in 6 well plate of 293T for 48 hrs. 200 ul opti-medium+7 ul GeneCellin (Polyplus transfection Co.)+4 ug plasmids in each well. Transfected AVIL cells were treated with the IC50 dose of the test compounds for 24 hrs. Protein extract was then prepared on ice by adding 1 ml IP lysis buffer+protease inhibitor+cocktail+PMSF, and let stand on ice for 30 min. Cells were then scraped into EP tubes and sonicated continuously for 5 sec with power setting 3. Tubes were then centrifuged in 4° C. at 13000 rpm for 20 min, and the upper aqueous phase was then transferred to pre-chilled tubes. Protein concentration was then determined using Bio-Rad protein assay. Preclear cell extracts were treated with 50 ul ProteinG/Sepharose per my lysate for 1 hr. Then 500 ug precleared cell extracts were taken and adjusted to 500 ul with lysis buffer for 2 ug myc antibody or IgG control and incubated at 4° C. overnight. Then, 25 ul ProteinG/Sepharose beads were added and incubated at 4° C. overnight. Beads were then washed four times with 1 ml IP wash buffer for 3 min, and spun at 1000 rpm to pellet beads. All wash buffer was removed with pipette, and 20 ul 2×SDS loading buffer was added and then boiled at 95° C. for 10 min to denature. This was centrifuged at 12000 rpm for 30 sec., and the supernatant was then transferred to a fresh tube and load for SDS-PAGE.
# Western blot was performed with R-actin antibody. To measure protein levels, cell lysates were resolved by denaturing gel electrophoresis, before electrotransfer to a Protran nitrocellulose membrane. The membrane was subjected to western blot analysis with antibodies against the proteins of interest. The following antibodies and dilutions were used: rabbit anti-AVIL (1:2000; Sigma SAB2100191).
# [2] = system: Immortalized human astrocytes; assay: MTT cell viability assay, astrocytes (non-cancer control); settings: for pIC50: immortalized human astrocytes, MTT after three days
# Procedure: (§1) Different concentration of compounds were added to the cells. Three days later, a MTT assay (Sigma) was performed to monitor cell viability.
# (§2) In this example, samples of glioblastoma cells (U87) and astrocyte cells (non-cancer control) were exposed various disclosed compounds to determine the effectiveness of the compounds for inhibiting cell growth.
# [3] = system: Glioblastoma cell line U87 cells; assay: MTT cell viability assay, glioblastoma cells; settings: for pIC50 / IC50: Homo sapiens, U-87 MG, 72 h, U87 glioblastoma cells, MTT after three days; for IC50: value in nM
# Procedure: as §1, §2
pIC50 [3],IC50 [3],Structure (SMILES),down-regulation of LIN28B gene expression (LIN28B),disruption of AVIL protein binding to actin [1],"effect on astrocytes ([2]; FIG. 1 cell survival curves, astrocytes, varied doses)","pIC50 ([2]; Homo sapiens, Astrocyte, 72 h)",pIC50 ([2]; read-out: IC50 (astrocyte)),"concentration at which most if not all of the U87 cells were wiped out ([3]; FIG. 1 cell survival curves, U87)"
~6.00,~600 nM,"Cc1nc(N)nc(N2CCCC(CO)(CCCc3ccccc3)C2)c1C (stereo not drawn) [PLH1252, (1-(2-Amino-5,6-dimethylpyrimidin-4-yl)-3-(3-phenylpropyl)piperidin-3-yl)methanol]",down-regulation of LIN28B gene expression,disruption of AVIL protein binding to actin,no significant effect,4.35,~4.10,less than 1 μM
> 6.00,500 nM,"OCC1(CCCc2ccccc2)CCCN(c2ncnc3ccccc23)C1 (stereo not drawn) [PLH1295, (3-(3-Phenylpropyl)-1-(quinazolin-4-yl)piperidin-3-yl)methanol]",down-regulation of LIN28B gene expression,disruption of AVIL protein binding to actin,,4.66,4.52,
5.82,,"CCc1ncnc(N2CCCC(CO)(CCCc3ccccc3)C2)c1F (stereo not drawn) [PLH2002, (1-(6-Ethyl-5-fluoropyrimidin-4-yl)-3-(3-phenylpropyl)piperidin-3-yl)methanol]",,,,5.96,,
< 4.10,,"Nc1ccnc(N2CCCC(CO)(CCCc3ccccc3)C2)n1 (stereo not drawn) [PLH2006, (1-(4-Aminopyrimidin-2-yl)-3-(3-phenylpropyl)piperidin-3-yl)methanol]",,,,< 4.10,,
~4.30,,"Nc1nccc(N2CCCC(COCc3ccccc3)C2)n1 (stereo not drawn) [PLH2027, 4-(3-((Benzyloxy)methyl)piperidin-1-yl)pyrimidin-2-amine]",,,,~4.10,,
5.37,,"Nc1nccc(N2CCC[C@H](COCc3ccccc3)C2)n1 [PLH2032, (S)-4-(3-((Benzyloxy)methyl)piperidin-1-yl)pyrimidin-2-amine]",,,,~4.40,,
5.55,,"Nc1nccc(N2CCC[C@@H](COCc3ccccc3)C2)n1 [PLH2040, (R)-4-(3-((Benzyloxy)methyl)piperidin-1-yl)pyrimidin-2-amine]",,,,< 4.10,,
> 5.60,,"Cc1ncnc(N2CCCC(CO)(CCCc3ccccc3)C2)c1C (stereo not drawn) [PLH2056, (1-(5,6-Dimethylpyrimidin-4-yl)-3-(3-phenylpropyl)piperidin-3-yl)methanol]",down-regulation of LIN28B gene expression,disruption of AVIL protein binding to actin,,~4.10,,
~4.52,,"OCC1(CCCc2ccccc2)CCCN(c2ccncn2)C1 (stereo not drawn) [PLH2062, (3-(3-Phenylpropyl)-1-(pyrimidin-4-VI)piperidin-3-yl)methanol]",,,,< 4.10,,
~4.10,,"Cc1c(-c2ccccc2)ncnc1N1CCCC(CO)(CCCc2ccccc2)C1 (stereo not drawn) [PLH2063, (1-(5-methyl-6-phenylpyrimidin-4-yl)-3-(3-phenylpropyl)piperidin-3-yl)methanol]",,,,~4.10,,
,,"c1ccc(COCC2CCCN(c3ncnc4ccccc34)C2)cc1 (stereo not drawn) [PLH2069, 4-(3-((Benzyloxy)methyl)piperidin-1-yl)quinazoline]",down-regulation of LIN28B gene expression,disruption of AVIL protein binding to actin,,,,
~5.70,,"OCC1(CCCc2ccccc2)CCCN(c2ncnc3cc(Cl)ccc23)C1 (stereo not drawn) [PLH2074, (1-(7-Chloroquinazolin-4-yl)-3-(3-phenylpropyl)piperidin-3-yl)methanol]",,,,~4.82,,

# Source: patent US20220213055A1, “SUBSTITUTED (PIPERIDIN-1-YL)ARYL ANALOGUES FOR MODULATING AVIL ACTIVITY” (University of Virginia Patent Foundation, priority 2019, published 2022)
